Reference: US10512667B2, “Compositions and methods for treating conditions related to adrenocortical activity and/or excessive steroid production” (The Regents of the University of Michigan, priority 2017, dated 2019)
“Also recorded” adds a separate entry of the source.

Columns and labels:
BD140C cells [1] = experiment: Cellular ATP level (CellTiter-Glo); format: cell-based
Description: (§7) The ATP levels of cells were measured by lysis in CellTiter-Glo reagent (Promega), and measurement of the luminescence.
(§8) After 48 h, 20-80 μl of medium was removed from each well and replaced with 20 μl of each compound diluted to 6× of the final concentration in the culture medium to produce a final volume of 120 μl. The cells were incubated at 37 C in 5% CO2 atmosphere for a time ranging from 15 min to 24 h. The medium was removed and immediately replaced with 50 μl of CellTiter-Glo luminescence cell viability assay reagent (Promega). The cells were lysed by agitation at room temperature for 20 min in the dark. The luminescence was measured using a SpectraMax M5 microplate reader (Molecular Devices) with a 0.5 s acquisition time. The luminescence (RLU) values for control cells ranged from 5000 to 20000 RLU in all experiments, and were scaled by a factor of 0.001 to plot all graphs.

H295R cells [2] = experiment: Visualization of NBD-cholesterol esterification; format: cell-based
Description: (§1) The cells were seeded in 96-well ibiTreat μ-Plates and allowed to adhere for 48 h prior to the start of each experiment. Cholesterol was detected in fixed cells by incubating with 100 μg/ml filipin III at 37 C for 2 h. The bound filipin III was imaged by fluorescence microscopy using 377/11 nm excitation and 447/60 nm emission wavelengths. Images were captured using either a 4× or a 60× objective. Cholesterol esterification was visualized by culturing the cells with 1 μM NBD-cholesterol for 2 h following incubation with the indicated compounds. NBD-cholesterol esters were imaged by fluorescence microscopy using 485/20 nm excitation wavelengths. Images were captured using either a 20× or a 60× objective.
(§2) The cells were seeded in 96-well ibiTreat μ-Plates (Ibidi) in 100 μl at a density of 50,000 cells per well. […] 5 μl of NBD-cholesterol was added to each well to produce a final concentration of 1 μM. When NBD-cholesterol is esterified and localized to cytoplasmic lipid droplets, it produces bright fluorescent foci in the cell. The inhibition of ACAT activity prevents fluorescent focus formation by NBD-cholesterol (see, e.g., Lada, et al., 2004 J Lipid Res, 45, 378-86). After 1.5 h, 5 μl of Hoechst 33342 was added to each well to produce a final concentration of 3 μg/ml. After 30 min, the medium was replaced with fresh medium. NBD-cholesterol esterification was visualized by fluorescence microscopy using either 485/20 nm (NBD) or 387/11 nm (Hoechst) excitation wavelengths and images were captured using either a 60× oil objective or a 20× objective.

BD140C cells [3] = experiment: Visualization of NBD-cholesterol esterification; format: cell-based; details: compound 2 h then 2 h with NBD-cholesterol
Description: as §1, §2

adrenal cortex = details: in vivo; cited from earlier work
ACAT = details: cited from earlier work
H295R cells [4] = experiment: Caspase 3/7 activity (Apo-ONE); format: cell-based; details: for caspase 3/7 activity, compound alone: serum-containing medium
Description: (§3) The samples were incubated for 18 h at room temperature in the dark. The fluorescence was measured using a SpectraMax M5 microplate reader with a 0.5 s acquisition time.

BD140C cells [5] = experiment: Caspase 3/7 activity (Apo-ONE); format: cell-based
Description: as §3

H295R cells [6] = experiment: Cholesterol efflux into serum-free medium with apoA1; format: cell-based; details: serum-free medium containing apoA-I, 4 h
Description: Cholesterol efflux was measured by replacing the culture medium with serum-free medium supplemented with 5 μg/ml apoA1 (Sigma) and the indicated compounds. After the indicated time, the serum-free medium was collected, and the cholesterol concentration was measured using the fluorometric enzyme-linked assay (Cayman Chemical).
After 48 h, the medium was removed and replaced with 50 μl serum-free medium supplemented with 5 μg/mL apoA1. After the indicated time, the supernatant containing the effluxed cholesterol, was transferred to a new 96-well plate. A cholesterol detection reagent (Cayman Chemical) consisting of cholesterol assay buffer, cholesterol assay detector (10-acetyl-3,7-dihydroxyphenoxazine [ADHP]), horseradish peroxidase, cholesterol oxidase, and cholesterol esterase was added, and the reactions were incubated for 30 min at 37 C. The fluorescence intensities were measured using ex. […] 590 nm. The cholesterol concentrations were calculated by interpolation between the values produced by cholesterol standards that were analyzed in parallel.

ABCG1 = experiment: Transcript measurement by qPCR in H295R cells; format: cell-based; details: 4 h, hydrochloride
Description: (§4) mRNA was isolated (Qiagen), and was reverse transcribed using the Transcriptor First Strand cDNA synthesis kit (Roche). The relative amounts of cDNAs corresponding to the indicated transcripts were quantified using qPCR assays with specific primers (Table 2).
(§5) H295R cells were seeded in 6-well tissue culture plates (Corning #3506) at a density of 5 X105 per well. After 48 h, the compound(s) indicated were added, and the cells were cultured for the indicated time. The cells were harvested in 1.35 ml culture medium with trypsin. The cells were collected by centrifugation and lysed in 350 μl of RLT buffer (Qiagen) with β-mercaptoethanol. mRNA extraction and DNase treatment were performed according to the manufacturer's protocol (Qiagen). All RNA samples had 260/280 ratios greater than 1.5. The same amount of RNA ranging from 0.1 to 0.5 μg was used for reverse transcription using the Roche Transcriptor First Strand cDNA synthesis kit (Roche #04897030001) using the manufacturer's protocol. SYBR Green I-based real-time qPCR assays were performed using a Roche LightCycler480 instrument. The levels of transcripts in different samples were normalized by the levels of RPL9 transcripts.

ABCA1 = experiment: Transcript measurement by qPCR in H295R cells; format: cell-based; details: 4 h, hydrochloride
Description: as §4, §5

CHOP = experiment: Transcript measurement by qPCR in H295R cells; format: cell-based; details: 4 h
Description: as §4, §5

H295R cells [7] = experiment: Cortisol secretion (indirect ELISA); format: cell-based
Description: Cortisol secretion was measured by replacing the culture medium with fresh medium containing the indicated compounds. The medium was collected at the indicated times. The cortisol concentration in the medium was measured using indirect ELISA (Arbor Assays).
After 48 h, the medium was removed and replaced with 50 μl of fresh medium. After the indicated incubation time, aliquots of the supernatant ranging from 0.5 to 10 μl were diluted in 50 μl of medium were used to measure the amount of cortisol secreted. Cortisol detection and quantification were performed by indirect ELISA according to the manufacturer's protocol (Arbor Assays #K003).

H295R cells [8] = experiment: Cellular ATP level (CellTiter-Glo); details: for ATP level, compound alone: H295R cells, serum-containing medium;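 as to all read-outs here: ATP quantified by luminescence after lysing the cells in CellTiter-Glo reagent, with compound exposure at 37 °C under 5% CO2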
Description: as §7, §8

H295R cells [9] = experiment: Visualization of cholesterol levels by filipin III binding; format: cell-based; details: for cholesterol level / accumulation (filipin III binding), compound alone: serum-containing medium
Description: as §1, with “The bound filipin III was imaged by fluorescence microscopy using 377/11 nm excitation and 447/60 nm emission wavelengths.” left out, “NBD-cholesterol esters were imaged by fluorescence microscopy using 485/20 nm excitation wavelengths.” left out
(§6) The medium was removed and immediately replaced with 100 μl of 4% paraformaldehyde and the cells were fixed at room temperature for 20 min. The cells were washed twice with 200 μl PBS. […] The fixed cells were incubated with filipin III at 37 C in the dark for 2 h.

BD140C cells [10] = experiment: as above; format: cell-based; details: 4 h
Description: as §1, with “The bound filipin III was imaged by fluorescence microscopy using 377/11 nm excitation and 447/60 nm emission wavelengths.” left out, “NBD-cholesterol esters were imaged by fluorescence microscopy using 485/20 nm excitation wavelengths.” left out
as §6

H295R cells [11] = experiment: Cell morphology by phase contrast microscopy; format: cell-based; details: 30 h
Description: FIG. 4E: […] The cells were cultured with DMSO vehicle (upper images) or with 40 μM ATR-101 (lower images) alone (left images), or in combination with 1.5 mM MβCD (middle images), or in combination with 40 μM cholesterol (right images). Cell morphology was visualized by phase contrast microscopy using a 10× objective. The images are representative of 5 fields under each set of culture conditions. The scale bars denote 100 μm.

H295R cells [12] = experiment: Cholesterol crystallization and extracellular cholesterol associated with cells; format: cell-based
Description: To quantify cholesterol crystallization, experiments were conducted that measured the total extracellular cholesterol that was associated with the cells. After culturing cells with the indicated compounds, the culture medium was removed. Medium lacking cholesterol was added to the cells, and the extracellular cholesterol that was released into the wash medium was collected after 30 seconds. To establish if the cholesterol that was released from the cells was exported by ABCA1, the wash step was performed in parallel using media with and without 50 μM glibenclamide, which inhibits ABCA1 activity. The total amount of cell-associated cholesterol that was released into the wash medium was measured using a fluorometric enzyme-linked assay (Cayman Chemical). Cholesterol esters were hydrolyzed using cholesterol esterase. Cholesterol was oxidized by cholesterol oxidase, producing hydrogen peroxide. The hydrogen peroxide was reacted with 10-acetyl-3,7-dihydroxyphenoxazine (ADHP) in the presence of horseradish peroxidase to produce resorufin. Resorufin fluorescence was measured using 555 nm exitation and 590 nm emission wavelengths in a SpectraMax M5 microplate reader (Molecular Devices).
The medium was removed and replaced with 50 μl serum-free medium supplemented with 5 μg/mL apo-AI (without or with 50 μM glyburide to detect ABCA1 transporter-dependent efflux) for either 30 sec or 1 h at 37 C in 5% CO2 atmosphere. After the indicated time, the supernatant, was transferred to a new 96-well plate and a fluorometric-base cholesterol detection assay cocktail was added.

[13] = H295R cells, serum-free, 50 μM each glibenclamide, benzamil, zosuquidar, 10 μM PD129337, 4 mM MβCD
[14] = H295R cells cultured with the compound together with ATR-101, 4 h
[15] = H295R cells cultured with the compound together with ATR-101, 24 h

SMILES: CC(C)c1cccc(C(C)C)c1NC(=O)NCC1(c2ccccc2)CCCC1.Cl [PD129337, N-(2,6-bis(1-methylethyl)phenyl)-N′-((1-(phenyl)cyclopentyl)methyl)urea hydrochloride]
- ATP level, compound alone (BD140C cells [1]; 4 h): did not cause ATP depletion
- ATP level, compound alone (BD140C cells [1]; 24 h, hydrochloride): did not reduce the ATP level; also recorded: no detectable effect
- NBD-cholesterol esterification and accumulation in lipid droplets (H295R cells [2]; compound 2 h then 2 h with NBD-cholesterol, hydrochloride): inhibited cholesterol esterification more efficiently than ATR-101; also recorded: inhibited NBD-cholesterol accumulation more effectively than ATR-101; also recorded: eliminated both the intense foci and the diffuse fluorescence
- NBD-cholesterol esterification and accumulation in lipid droplets (BD140C cells [3]): inhibited NBD-cholesterol esterification
- adrenalytic activity (adrenal cortex): only ATR-101 has adrenalytic activity
- ACAT activity (ACAT): inhibit ACAT activity
- caspase 3/7 activity, compound alone (H295R cells [4]; H295R cells, 4 h): did not cause ATP depletion or caspase activation
- caspase 3/7 activity, compound alone (H295R cells [4]; H295R cells, 24 h, hydrochloride): did not reduce the ATP level or increase the caspase 3/7 activity; also recorded: no detectable effect
- caspase 3/7 activity with combinations of ABC transporter inhibitors (H295R cells [4]; [13]): did not enhance ATP depletion or caspase 3/7 activation
- caspase 3/7 activity, compound alone (BD140C cells [5]; 4 h): did not cause ATP depletion or caspase activation
- caspase 3/7 activity, compound alone (BD140C cells [5]; 24 h, hydrochloride): did not reduce the ATP level or increase the caspase 3/7 activity; also recorded: no detectable effect
- cholesterol efflux, compound alone (H295R cells [6]): no detectable effect on cholesterol efflux
- ABCG1 transcript level (ABCG1): inhibited; also recorded: equivalent effects
- ABCA1 transcript level (ABCA1): inhibited; also recorded: equivalent effects
- CHOP transcript level (CHOP): activated
- cortisol secretion, compound alone (H295R cells [7]; cortisol in medium, 4 h or time course): did not reduce, but rather increased, cortisol secretion
- ATP level, compound alone (H295R cells [8]; 4 h): did not cause ATP depletion
- ATP level, compound alone (H295R cells [8]; 24 h, hydrochloride): did not reduce the ATP level; also recorded: no detectable effect
- cholesterol level / accumulation (filipin III binding), compound alone (H295R cells [9]; H295R cells, up to 4 h): did not cause cholesterol accumulation
- cholesterol level with combinations of ABC transporter inhibitors (H295R cells [9]; [13]): further increased the cholesterol level
- cholesterol level / accumulation (filipin III binding), compound alone (BD140C cells [10]): did not cause cholesterol accumulation

SMILES: CC(C)CCC[C@@H](C)[C@H]1CC[C@H]2[C@@H]3CC=C4C[C@@H](O)CC[C@]4(C)[C@H]3CC[C@]12C [cholesterol]
- effect of exogenous cholesterol on NBD-cholesterol esterification and on its inhibition by ATR-101 (H295R cells [2]; 40 μM exogenous cholesterol, 100 μM ATR-101): no significant difference
- effect on the changes in cell morphology caused by ATR-101 (H295R cells [11]; 40 μM ATR-101 with 1.5 mM MβCD or 40 μM cholesterol): remained flat and adherent for at least 30 h; also recorded: prevented
- cell morphology, compound alone (H295R cells [11]; phase contrast): no detectable effect
- effect on caspase 3/7 activation by ATR-101 (H295R cells [4]; [14]): did not affect caspase 3/7 activation
- effect on caspase 3/7 activation by ATR-101 (H295R cells [4]; [15]): reduced caspase activation
- caspase 3/7 activity, compound alone (H295R cells [4]; H295R cells, 4 h): no detectable effect
- caspase 3/7 activity, compound alone (H295R cells [4]; H295R cells, 24 h): no detectable effect
- effect on the inhibition of cortisol secretion by ATR-101 (H295R cells [7]; 40 μM of the compound together with ATR-101, 4 h): neither compound prevented the inhibition of cortisol secretion
- effect on ATP depletion by ATR-101 (H295R cells [8]; [14]): partially restored the ATP level; also recorded: restored normal or nearly normal ATP levels; also recorded: reduced ATP depletion
- effect on ATP depletion by ATR-101 (H295R cells [8]; [15]): partially restored the ATP level; also recorded: inhibits ATP depletion by ATR-101
- ATP level, compound alone (H295R cells [8]; 4 h): no detectable effect
- ATP level, compound alone (H295R cells [8]; 24 h): no detectable effect
- total extracellular cholesterol associated with cells (H295R cells [12]; 4 h, 100 μM ATR-101 or 40 μM cholesterol): increased the total extracellular cholesterol
- effect on cholesterol crystallization in cells cultured with ATR-101 (H295R cells [12]; compound in combination with ATR-101): produced more extracellular crystals; also recorded: increased the amount of extracellular cholesterol crystals
- effect on cholesterol accumulation caused by ATR-101 (H295R cells [9]; H295R cells cultured with the compound together with ATR-101, 4 h or 24 h): lower cholesterol levels than cells that were cultured with ATR-101 alone; also recorded: prevented intracellular cholesterol accumulation; also recorded: did not have a higher level of filipin III binding to the plasma membrane
- cholesterol level / accumulation (filipin III binding), compound alone (H295R cells [9]; H295R cells, 24 h): no detectable effect
- cholesterol level / accumulation (filipin III binding), compound alone (H295R cells [9]; H295R cells, up to 4 h): no detectable effect
